Results as given in patent US20210169848A1, “USE OF NEUROKININ-1 ANTAGONISTS TO TREAT PRURITUS” (VYNE THERAPEUTICS INC., priority 2018, published 2021).

Assays:
[1] = tested on: subjects with idiopathic pruritus; assay: Phase II randomized, double-blind, placebo-controlled clinical study of serlopitant for chronic pruritus (post hoc WI-NRS 4-point responder analysis); assay type: in vivo, human; conditions: for WI-NRS 4-point Responder Rate at Week 6: 6 weeks, 3-tablet loading dose Day 1
patients with pruritus = assay: Pooled clinical studies, age-related effects of serlopitant (NRS change, NRS 4-point responder rate); assay type: in vivo, human; conditions: older patients (e.g., 40 years or older) compared with younger patients; pooled 1 mg and 5 mg
Description: Data obtained from the clinical studies described in Examples 6-8 for patients administered 1 mg and 5 mg serlopitant were pooled and evaluated on the basis of the age of the subjects.

[2] = cited from earlier work

## CC(O[C@H]1CC[C@@H]2CN(C3=CC(=O)CC3)C[C@H]2[C@@H]1c1ccc(F)cc1)c1cc(C(F)(F)F)cc(C(F)(F)F)c1 (stereo partly drawn) [serlopitant, 3-[(3aR,4R,5S,7aS)-5-[(1R)-1-[3,5-bis(trifluoromethyl)phenyl]cthoxy]-4-(4-fluorophenyI)-1,3,3a,4,5,6,7,7a-octahydroisoindol-2-yl]cyclopent-2-en-1-one]
[1]; all patients, 0.25 mg once daily oral
  WI-NRS 4-point Responder Rate at Week 6: 38.5% (n = 52)
[1]; all patients, 1 mg once daily oral
  WI-NRS 4-point Responder Rate at Week 6: 32.7% (n = 55)
[1]; all patients, 5 mg once daily oral
  WI-NRS 4-point Responder Rate at Week 6: 46.2% (n = 52)
[1]; patients with inflammatory skin disease, 0.25 mg once daily oral
  WI-NRS 4-point Responder Rate at Week 6: 30.8% (n = 26)
[1]; patients with inflammatory skin disease, 1 mg once daily oral
  WI-NRS 4-point Responder Rate at Week 6: 29.6% (n = 27)
[1]; patients with inflammatory skin disease, 5 mg once daily oral
  WI-NRS 4-point Responder Rate at Week 6: 33.3% (n = 18)
[1]; patients without inflammatory skin disease compared with patients with inflammatory skin disease
  response to serlopitant therapy, patients without vs with inflammatory skin disease: appeared to respond better
[1]; patients without inflammatory skin disease, 0.25 mg once daily oral
  WI-NRS 4-point Responder Rate at Week 6: 46.2% (n = 26)
[1]; patients without inflammatory skin disease, 1 mg once daily oral
  WI-NRS 4-point Responder Rate at Week 6: 35.7% (n = 28)
[1]; patients without inflammatory skin disease, 5 mg once daily oral
  WI-NRS 4-point Responder Rate at Week 6: 52.9% (n = 34)
Patients with pruritus
  response to serlopitant therapy as function of age (NRS change from baseline, NRS 4-point Responder Rate): responded better

## C[C@@H](O[C@H]1CC[C@@H]2CN(C3=CC(=O)CC3)C[C@H]2[C@@H]1c1ccc(F)cc1)c1cc(C(F)(F)F)cc(C(F)(F)F)c1 [Form I]
[2]; Form I relative to Form II of free base serlopitant
  thermodynamic stability of polymorph: thermodynamically more stable below 70 °C
[2]; all tested relative humidity conditions
  hygroscopicity: non-hygroscopic
